{"source": "patent US7259003B2", "about": "“Escherichia bacteria transformed with a yedA homolog to enhance L-amino acid producing activity, and methods for producing an L-amino acid using same” (priority 2001, dated 2007)", "assay_type_in_all_cases": "cell-based", "settings_in_all_cases": "37° C.", "key": {"[1]": {"tested_on": "E. coli strain TG1 (pYEDA1)", "experiment": "Growth of E. coli TG1 (pYEDA1) on M9 glucose minimal agar containing amino acids and amino acid analogs", "procedure": "(§1) The pYEDA1 and pYEDA2 plasmids and the pUC19 and pAYCTER3 vectors were introduced into E. coli strain TG1. Thus the strains TG1 (pYEDA1), TG1 (pYEDA2), TG1 (pUC19) and TG1 (pAYCTER3) were obtained.\n(§2) Then the ability of these strains to grow in the presence of amino acids and amino acid analogues for each strain were determined on M9 glucose minimal agar plates containing graded concentrations of inhibitor. The plates were spotted with 10^6 to 10^7 cells from an overnight culture grown in a minimal medium (supplemented with 100 μg/ml of ampicillin for plasmid strains). The growth was estimated after 44 h incubation at 37° C."}, "[2]": {"tested_on": "E. coli strain TG1 (pUC19)", "experiment": "Growth of E. coli TG1 (pUC19) on M9 glucose minimal agar containing amino acids and amino acid analogs", "procedure": "as §1, §2"}, "[3]": {"tested_on": "E. coli strain TG1 (pYEDA2)", "experiment": "Growth of E. coli TG1 (pYEDA2) on M9 glucose minimal agar containing amino acids and amino acid analogs", "procedure": "as §1, §2"}}}
{"compound": "NC(Cc1c[nH]c2ccc(F)cc12)C(=O)O", "note": "(racemic) [5-fluoro-DL-tryptophane]; note: key: +: good growth; −: no growth", "values": [{"measurement": "Growth after 44 h TG1 (pYEDA1)", "setting": "[1]; substrate 0.0005 mg/ml", "result": "+"}, {"measurement": "Growth after 44 h TG1 (pUC19)", "setting": "[2]; substrate 0.0005 mg/ml", "result": "−"}]}
{"compound": "NCCSC[C@H](N)C(=O)O", "note": "[S(2-aminoethyl)-L-cysteine]", "values": [{"measurement": "Growth after 44 h TG1 (pYEDA2)", "setting": "[3]; substrate 0.4 mg/ml", "result": "+"}, {"measurement": "Growth after 44 h TG1 (pYEDA1)", "setting": "[1]; substrate 0.4 mg/ml", "result": "+"}, {"measurement": "Growth after 44 h TG1 (pUC19)", "setting": "[2]; substrate 0.4 mg/ml", "result": "−"}]}
{"compound": "N[C@@H](CS)C(=O)O", "note": "[L-cysteine]", "values": [{"measurement": "Growth after 44 h TG1 (pYEDA1)", "setting": "[1]; substrate 7.5 mg/ml", "result": "+"}, {"measurement": "Growth after 44 h TG1 (pUC19)", "setting": "[2]; substrate 7.5 mg/ml", "result": "−"}]}
{"compound": "C[C@@H](O)[C@H](N)C(=O)O", "note": "[L-threonine]", "values": [{"measurement": "Growth after 44 h TG1 (pYEDA1)", "setting": "[1]; substrate 50.0 mg/ml", "result": "+"}, {"measurement": "Growth after 44 h TG1 (pUC19)", "setting": "[2]; substrate 50.0 mg/ml", "result": "−"}]}
{"compound": "NC(Cc1ccc(F)cc1)C(=O)O", "note": "(racemic) [p-fluoro-DL-phenylalanine]", "values": [{"measurement": "Growth after 44 h TG1 (pYEDA2)", "setting": "[3]; substrate 1.0 mg/ml", "result": "+"}, {"measurement": "Growth after 44 h TG1 (pYEDA2)", "setting": "[3]; substrate 2.0 mg/ml", "result": "−"}, {"measurement": "Growth after 44 h TG1 (pYEDA1)", "setting": "[1]; substrate 1.0 mg/ml", "result": "+"}, {"measurement": "Growth after 44 h TG1 (pYEDA1)", "setting": "[1]; substrate 2.0 mg/ml", "result": "+"}, {"measurement": "Growth after 44 h TG1 (pUC19)", "setting": "[2]; substrate 1.0 mg/ml", "result": "−"}, {"measurement": "Growth after 44 h TG1 (pUC19)", "setting": "[2]; substrate 2.0 mg/ml", "result": "−"}]}
{"compound": "N[C@@H](CCO)C(=O)O", "note": "[L-homoserine]", "values": [{"measurement": "Growth after 44 h TG1 (pYEDA1)", "setting": "[1]; substrate 3.0 mg/ml", "result": "+"}, {"measurement": "Growth after 44 h TG1 (pUC19)", "setting": "[2]; substrate 3.0 mg/ml", "result": "−"}]}
{"compound": "CN(C)CC(N)C(=O)O", "note": "(racemic) [4-aza-DL-leucine]", "values": [{"measurement": "Growth after 44 h TG1 (pYEDA1)", "setting": "[1]; substrate 1.0 mg/ml", "result": "+"}, {"measurement": "Growth after 44 h TG1 (pUC19)", "setting": "[2]; substrate 1.0 mg/ml", "result": "−"}]}
{"compound": "N[C@@H](Cc1c[nH]cn1)C(=O)O", "note": "[L-histidine]", "values": [{"measurement": "Growth after 44 h TG1 (pYEDA1)", "setting": "[1]; substrate 20.0 mg/ml", "result": "+"}, {"measurement": "Growth after 44 h TG1 (pUC19)", "setting": "[2]; substrate 20.0 mg/ml", "result": "−"}]}
{"compound": "N[C@@H](Cc1ccccc1)C(=O)O", "note": "[L-phenylalanine]", "values": [{"measurement": "Growth after 44 h TG1 (pYEDA2)", "setting": "[3]; substrate 20.0 mg/ml", "result": "−"}, {"measurement": "Growth after 44 h TG1 (pYEDA1)", "setting": "[1]; substrate 20.0 mg/ml", "result": "+"}, {"measurement": "Growth after 44 h TG1 (pUC19)", "setting": "[2]; substrate 20.0 mg/ml", "result": "−"}]}
